{"source": "ChEMBL document CHEMBL5518174", "about": "(Eur J Med Chem, 2024)", "key": {"[1]": {"experiment": "Upregulation of acetylated H4 protein expression in human MDA-MB-231 cells assessed as fold change at 0.1 uM incubated for 24 hrs by immunoblotting analysis (reference value: 1)", "type": "functional"}, "Histone deacetylase 3": {"biological_target": "Histone deacetylase 3 (Homo sapiens, UniProt O15379)", "sequence (O15379 whole entry)": "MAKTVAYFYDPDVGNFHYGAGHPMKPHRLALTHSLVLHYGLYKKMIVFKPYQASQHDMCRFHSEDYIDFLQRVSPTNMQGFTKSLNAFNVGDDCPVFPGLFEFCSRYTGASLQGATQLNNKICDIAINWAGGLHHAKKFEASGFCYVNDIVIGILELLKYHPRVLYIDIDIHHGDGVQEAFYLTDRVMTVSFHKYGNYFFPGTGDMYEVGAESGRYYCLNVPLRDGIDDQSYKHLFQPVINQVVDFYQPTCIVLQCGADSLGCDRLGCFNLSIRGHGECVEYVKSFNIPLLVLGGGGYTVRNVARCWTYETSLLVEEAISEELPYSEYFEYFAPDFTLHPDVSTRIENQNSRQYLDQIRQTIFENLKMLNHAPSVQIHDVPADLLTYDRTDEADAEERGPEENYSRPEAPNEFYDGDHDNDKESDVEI", "experiment": "Inhibition of recombinant human HDAC3 using acetylated luminogenic substrate incubated for 10 mins by ultra-glo recombinant firefly luciferase based luminescence assay"}, "[2]": {"experiment": "Toxicity in athymic nude BALB/c mouse xenografted with human NCI-H1975 cells assessed as effect on ALT level at 6 mg/kg, ip administered 5 times a week for 3 weeks and measured on day 22", "type": "organism-based", "settings": "in vivo, 528 h, time 22 day"}, "[3]": {"experiment": "Downregulation of HDAC3 protein expression in human NCI-H1975 cells assessed as fold change at 0.05 uM incubated for 24 hrs by immunoblotting analysis (reference value: 1)", "type": "functional"}, "[4]": {"experiment": "Effect on HDAC8 protein expression in human MDA-MB-231 cells assessed as fold change at 0.1 uM incubated for 24 hrs by immunoblotting analysis (reference value: 1)", "type": "functional"}, "[5]": {"experiment": "Downregulation of HDAC2 protein expression in human NCI-H1975 cells assessed as fold change at 0.05 uM incubated for 24 hrs by immunoblotting analysis (reference value: 1)", "type": "functional"}, "Histone deacetylase 9": {"biological_target": "Histone deacetylase 9 (Homo sapiens, UniProt Q9UKV0)", "sequence (Q9UKV0 whole entry)": "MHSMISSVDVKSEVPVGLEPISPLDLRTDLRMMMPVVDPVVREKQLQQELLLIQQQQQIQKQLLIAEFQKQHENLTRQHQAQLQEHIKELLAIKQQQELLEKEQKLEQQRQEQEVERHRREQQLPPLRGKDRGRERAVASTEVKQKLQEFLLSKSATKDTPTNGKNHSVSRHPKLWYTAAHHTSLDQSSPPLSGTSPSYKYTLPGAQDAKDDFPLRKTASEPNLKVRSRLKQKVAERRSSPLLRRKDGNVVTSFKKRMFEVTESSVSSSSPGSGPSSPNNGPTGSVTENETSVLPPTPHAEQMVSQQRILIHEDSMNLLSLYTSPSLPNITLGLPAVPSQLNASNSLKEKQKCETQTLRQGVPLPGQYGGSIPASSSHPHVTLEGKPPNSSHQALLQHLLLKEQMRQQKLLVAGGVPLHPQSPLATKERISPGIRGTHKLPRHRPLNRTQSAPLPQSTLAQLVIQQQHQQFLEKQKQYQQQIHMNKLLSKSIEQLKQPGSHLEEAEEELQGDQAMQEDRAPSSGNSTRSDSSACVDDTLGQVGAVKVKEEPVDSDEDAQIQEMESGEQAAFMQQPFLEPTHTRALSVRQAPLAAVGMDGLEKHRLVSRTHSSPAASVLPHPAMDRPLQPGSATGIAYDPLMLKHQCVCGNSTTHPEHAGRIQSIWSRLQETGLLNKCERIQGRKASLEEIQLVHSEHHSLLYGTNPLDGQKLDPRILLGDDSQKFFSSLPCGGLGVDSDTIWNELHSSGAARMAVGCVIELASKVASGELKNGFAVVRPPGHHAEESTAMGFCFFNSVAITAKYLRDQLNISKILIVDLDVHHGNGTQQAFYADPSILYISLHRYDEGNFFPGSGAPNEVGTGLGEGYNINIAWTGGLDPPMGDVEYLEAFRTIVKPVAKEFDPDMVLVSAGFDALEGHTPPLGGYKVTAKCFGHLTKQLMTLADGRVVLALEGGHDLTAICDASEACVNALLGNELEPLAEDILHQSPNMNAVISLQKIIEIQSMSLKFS", "experiment": "Inhibition of recombinant human HDAC9 using acetylated luminogenic substrate incubated for 10 mins by ultra-glo recombinant firefly luciferase based luminescence assay"}, "[6]": {"experiment": "Toxicity in athymic nude BALB/c mouse xenografted with human MDA-MB-231 cells assessed as effect on AST level in serum at 3 mg/kg, ip administered 5 times a week for 7 weeks", "type": "organism-based", "settings": "in vivo, 1176 h"}, "[7]": {"experiment": "Downregulation of HDAC6 protein expression in human NCI-H1975 cells assessed as fold change at 0.1 uM incubated for 24 hrs by immunoblotting analysis (reference value: 1)", "type": "functional"}, "Histone deacetylase 4": {"biological_target": "Histone deacetylase 4 (Homo sapiens, UniProt P56524)", "sequence (P56524 whole entry)": "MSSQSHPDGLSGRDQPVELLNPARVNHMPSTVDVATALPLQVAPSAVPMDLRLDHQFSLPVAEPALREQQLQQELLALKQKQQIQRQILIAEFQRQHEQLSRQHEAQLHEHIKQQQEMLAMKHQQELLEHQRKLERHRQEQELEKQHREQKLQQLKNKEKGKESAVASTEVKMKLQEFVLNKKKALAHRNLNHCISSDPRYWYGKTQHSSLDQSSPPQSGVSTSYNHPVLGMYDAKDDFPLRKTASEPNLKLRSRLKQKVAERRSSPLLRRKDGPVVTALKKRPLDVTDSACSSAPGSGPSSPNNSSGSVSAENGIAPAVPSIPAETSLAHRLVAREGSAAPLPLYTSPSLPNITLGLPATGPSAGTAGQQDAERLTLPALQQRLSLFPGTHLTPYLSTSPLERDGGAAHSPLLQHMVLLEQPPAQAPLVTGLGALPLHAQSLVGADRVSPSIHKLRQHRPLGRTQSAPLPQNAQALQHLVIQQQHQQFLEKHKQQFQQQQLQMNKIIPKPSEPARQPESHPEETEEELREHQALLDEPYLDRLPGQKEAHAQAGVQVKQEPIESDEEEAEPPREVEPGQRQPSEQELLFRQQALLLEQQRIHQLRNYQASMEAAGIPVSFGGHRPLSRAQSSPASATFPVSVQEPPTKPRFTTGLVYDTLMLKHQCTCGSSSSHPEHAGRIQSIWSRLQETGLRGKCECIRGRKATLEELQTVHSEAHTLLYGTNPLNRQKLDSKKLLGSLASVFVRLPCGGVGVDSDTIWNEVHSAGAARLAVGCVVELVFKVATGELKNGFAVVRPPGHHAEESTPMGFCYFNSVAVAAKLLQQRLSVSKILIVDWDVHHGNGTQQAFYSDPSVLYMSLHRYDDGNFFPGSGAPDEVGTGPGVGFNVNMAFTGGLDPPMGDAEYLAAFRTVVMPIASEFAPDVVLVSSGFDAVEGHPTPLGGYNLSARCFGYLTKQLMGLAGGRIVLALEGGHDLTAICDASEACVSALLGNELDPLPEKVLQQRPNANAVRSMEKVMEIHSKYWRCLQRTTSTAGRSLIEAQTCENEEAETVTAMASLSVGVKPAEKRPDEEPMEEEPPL", "experiment": "Inhibition of recombinant human HDAC4 using acetylated luminogenic substrate incubated for 10 mins by ultra-glo recombinant firefly luciferase based luminescence assay"}, "Histone deacetylase 7": {"biological_target": "T1, Histone deacetylase 7 (Homo sapiens, UniProt Q8WUI4)", "T1 sequence (Q8WUI4 whole entry)": "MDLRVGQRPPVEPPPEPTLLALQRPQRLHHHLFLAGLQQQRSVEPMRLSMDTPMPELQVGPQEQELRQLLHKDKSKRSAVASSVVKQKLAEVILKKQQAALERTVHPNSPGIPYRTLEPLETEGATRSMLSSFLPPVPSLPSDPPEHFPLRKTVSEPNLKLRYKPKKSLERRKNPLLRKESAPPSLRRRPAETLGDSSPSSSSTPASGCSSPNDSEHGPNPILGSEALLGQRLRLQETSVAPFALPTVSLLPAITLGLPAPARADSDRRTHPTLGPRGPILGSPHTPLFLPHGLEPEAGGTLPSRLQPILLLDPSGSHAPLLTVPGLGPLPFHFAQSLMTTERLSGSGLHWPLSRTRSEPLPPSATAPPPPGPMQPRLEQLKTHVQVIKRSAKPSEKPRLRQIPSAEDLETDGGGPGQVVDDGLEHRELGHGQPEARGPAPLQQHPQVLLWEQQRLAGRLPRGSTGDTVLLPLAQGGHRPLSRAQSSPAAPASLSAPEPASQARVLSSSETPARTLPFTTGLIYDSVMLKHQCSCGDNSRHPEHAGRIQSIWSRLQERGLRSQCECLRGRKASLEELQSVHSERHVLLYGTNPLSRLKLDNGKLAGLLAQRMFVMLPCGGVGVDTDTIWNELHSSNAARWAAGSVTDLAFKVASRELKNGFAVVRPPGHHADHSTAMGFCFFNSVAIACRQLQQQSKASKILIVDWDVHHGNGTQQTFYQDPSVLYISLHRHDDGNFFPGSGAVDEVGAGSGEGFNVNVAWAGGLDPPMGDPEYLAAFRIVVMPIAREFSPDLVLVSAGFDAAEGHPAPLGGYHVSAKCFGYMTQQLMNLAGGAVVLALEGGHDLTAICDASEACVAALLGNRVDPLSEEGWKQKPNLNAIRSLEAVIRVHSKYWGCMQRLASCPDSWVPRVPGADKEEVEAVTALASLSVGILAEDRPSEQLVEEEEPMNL", "experiment": "Inhibition of recombinant human HDAC7 using acetylated luminogenic substrate incubated for 10 mins by ultra-glo recombinant firefly luciferase based luminescence assay"}, "[8]": {"experiment": "Toxicity in athymic nude BALB/c mouse xenografted with human NCI-H1975 cells assessed as effect on BUN level at 6 mg/kg, ip administered 5 times a week for 3 weeks and measured on day 22", "type": "organism-based", "settings": "in vivo, 528 h, time 22 day"}, "[9]": {"experiment": "Effect on HDAC2 protein expression in human MDA-MB-231 cells assessed as fold change at 0.1 uM incubated for 24 hrs by immunoblotting analysis (reference value: 1)", "type": "functional"}, "[10]": {"experiment": "Effect on HDAC2 protein expression in human MDA-MB-231 cells assessed as fold change at 0.05 uM incubated for 24 hrs by immunoblotting analysis (reference value: 1)", "type": "functional"}, "[11]": {"experiment": "Downregulation of HDAC9 protein expression in human MDA-MB-231 cells assessed as fold change at 0.1 uM incubated for 24 hrs by immunoblotting analysis (reference value: 1)", "type": "functional"}, "[12]": {"experiment": "Downregulation of HDAC7 protein expression in human MDA-MB-231 cells assessed as fold change at 0.05 uM incubated for 24 hrs by immunoblotting analysis (reference value: 1)", "type": "functional"}, "[13]": {"experiment": "Downregulation of HDAC11 protein expression in human MDA-MB-231 cells assessed as fold change at 0.05 uM incubated for 24 hrs by immunoblotting analysis (reference value: 1)", "type": "functional"}, "[14]": {"experiment": "Downregulation of HDAC10 protein expression in human NCI-H1975 cells assessed as fold change at 0.1 uM incubated for 24 hrs by immunoblotting analysis (reference value: 1)", "type": "functional"}, "[15]": {"experiment": "Downregulation of HDAC1 protein expression in human MDA-MB-231 cells assessed as fold change at 0.05 uM incubated for 24 hrs by immunoblotting analysis (reference value: 1)", "type": "functional"}, "[16]": {"experiment": "Downregulation of HDAC6 protein expression in human NCI-H1975 cells assessed as fold change at 0.05 uM incubated for 24 hrs by immunoblotting analysis (reference value: 1)", "type": "functional"}, "[17]": {"experiment": "Downregulation of HDAC9 protein expression in human NCI-H1975 cells assessed as fold change at 0.1 uM incubated for 24 hrs by immunoblotting analysis (reference value: 1)", "type": "functional"}}, "note": "pIC50: −log10 of the molar value."}
{"smiles": "CCOc1ccc(-c2nc(C(=O)NCc3ccc(C(=O)NO)cc3)c3[nH]c(=O)n(-c4cccnc4OC)c3n2)cn1", "values": [{"measurement": "fold change (FC)", "setting": "[1]", "result": 2.91}, {"measurement": "pIC50", "setting": "Histone deacetylase 3", "result": 8.06}, {"measurement": "Activity", "setting": "[2]", "result": "Non-Toxic"}, {"measurement": "fold change (FC)", "setting": "[3]", "result": 0.82}, {"measurement": "fold change (FC)", "setting": "[4]", "result": 1.08}, {"measurement": "fold change (FC)", "setting": "[5]", "result": 0.77}, {"measurement": "pIC50", "setting": "Histone deacetylase 9", "result": 7.71}, {"measurement": "Activity", "setting": "[6]", "result": "Non-Toxic"}, {"measurement": "fold change (FC)", "setting": "[7]", "result": 0.41}, {"measurement": "pIC50", "setting": "Histone deacetylase 4", "result": "< 6.00"}, {"measurement": "pIC50", "setting": "Histone deacetylase 7", "result": "< 6.00"}, {"measurement": "Activity", "setting": "[8]", "result": "Non-Toxic"}, {"measurement": "fold change (FC)", "setting": "[9]", "result": 1.25}, {"measurement": "fold change (FC)", "setting": "[10]", "result": 1.18}, {"measurement": "fold change (FC)", "setting": "[11]", "result": 0.94}, {"measurement": "fold change (FC)", "setting": "[12]", "result": 0.77}, {"measurement": "fold change (FC)", "setting": "[13]", "result": 0.53}, {"measurement": "fold change (FC)", "setting": "[14]", "result": 0.9}, {"measurement": "fold change (FC)", "setting": "[15]", "result": 0.84}, {"measurement": "fold change (FC)", "setting": "[16]", "result": 0.6}, {"measurement": "fold change (FC)", "setting": "[17]", "result": 0.33}]}
